# Assay results from patent US10106491B2, “Substituted biaryl alkyl amides” (BioTheryX, Inc., priority 2011, dated 2018).
# Experiments:
# [1] = tested on: MDA-MB-468 (breast cancer) cell line; assay: MDA-MB-468 proliferation assay (MTS); format: cell-based; details: for growth rate: 72 h, DMSO control = 100%
# Procedure: (§1) Proliferation assays were conducted to assess the effects of the compounds described herein on the growth rate of neoplastic cells. For each of the proliferation assays described herein, SK-MEL-28, MDA-MB-468 or Panc-1 cells were grown in RPMI supplemented with 10% FBS and plated onto sterile 96-well tissue culture plates at 20,000 cells per well and allowed to attach overnight. Compounds B1 through B14 were added at 20 μM and 10 μM respectively in the SK-MEL-28 proliferation assay (FIG. 1). Compounds B3, B5, B7, B11 and B12 were added at 20 μM and 10 μM respectively for the MDA-MB-468 (FIG. 2A) and Panc-1 proliferation assays (FIG. 2B). Plates were incubated for 72 h (37° C., 5% CO2). Percent viability compared to DMSO control was determined using an MTS assay (CellTiter 96 Aqueous, Promega) according to the manufacturer's standard protocol. The standard used in the SK-MEL-28 assay is MG132, a proteasome inhibitor, at 10 uM concentration. It was used as a positive control for cell killing. All the assays are referenced to DMSO as the control at 100% proliferation.
# [2] = tested on: SK-MEL-28 (metastatic melanoma) cell line; assay: SK-MEL-28 proliferation assay (MTS, percent viability vs DMSO); format: cell-based; details: 72 h, FIG. 1
# Procedure: as §1
# [3] = tested on: Panc-1 (pancreatic cancer) cell line; assay: Panc-1 proliferation assay (MTS); format: cell-based; details: for growth rate: 72 h, DMSO control = 100%
# Procedure: as §1
# [4] = tested on: MDA-MB-468-NFkB-Luc2p cell line; assay: TNF-α induced NFkB reporter assay (luciferase); format: cell-based; details: 1 h before 10 ng/ml TNF-α for 6 h, FIG. 3; for result in TNF-α induced NFkB reporter assay: tested at 20 μM and 5 μM
# Procedure: The effects of the compounds described herein on the activation of TNF-mediated pathways were assessed using an MDA-MB-468NFkB-Luc2p reporter cell line (FIG. 3). To construct this cell line, MDA-MB-468 cells were transfected with pGL4.32[luc2P/NF-kB-RE/Hygro] vector (Promega) using TransFast transfection reagent (Promega) according to manufacturer's standard protocol. Briefly, cells were grown in RPMI supplemented with 10% FBS and plated onto sterile 6-well plates (Nunc). When cells became ˜75% confluent, media in each well was removed and replaced with 1 mL RPMI (no FBS) containing […] vector and TransFast for 1 h at 37° C. 2 mL of RPMI with FBS is then added to the well and after 24 h, 500 ug/ml of hygromycin was added for selection to generate a stable reporter cell line.
# Stable MDA-MB-468-NFkB-Luc2p cells were plated onto optical-bottom, white wall 96-well plates at 10,000 cells per well and allowed to attach overnight. Compounds B1 through B14 were added at 20 μM and 5 μM respectively for 1 h prior to treatment with 10 ng/ml of recombinant human TNF-α for 6 h. Luciferase signal was determined using the Luciferase Assay System (Promega) and a luminometer.
# [5] = biological target: T1, hCdc34 (Homo sapiens, UniProt P49427); details: Ceccarelli et al., Cell 145:1075-1087, 2011; cited from earlier work
# T1 sequence (P49427 1-236): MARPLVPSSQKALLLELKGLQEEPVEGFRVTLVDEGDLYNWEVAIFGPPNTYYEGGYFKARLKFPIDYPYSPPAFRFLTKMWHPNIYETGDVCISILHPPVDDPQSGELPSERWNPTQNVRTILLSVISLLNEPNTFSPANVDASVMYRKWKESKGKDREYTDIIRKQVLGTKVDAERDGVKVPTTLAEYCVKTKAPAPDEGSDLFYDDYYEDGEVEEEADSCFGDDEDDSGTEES
# [6] = SK-MEL-28, tested at 20 μM and 10 μM
SMILES,"growth rate ([1]; MDA-MB-468, 20 μM) [%]","inhibitory effect on proliferation [2, 6]",result in TNF-α induced NFkB reporter assay [4],also measured
CCOC(=O)C(O)C(O)C(Cc1ccc(-c2cc(Cl)cc(Cl)c2)cc1)NC(=O)CCl (centres unmarked) [Compound B3],5.5,good inhibitory effect,–,"growth rate ([1]; MDA-MB-468, 10 μM): 6.0%; inhibitory effect on proliferation ([1]; MDA-MB-468, at both concentrations (20 μM and 10 μM)): good inhibitory effect; growth rate ([3]; Panc-1, 10 μM): 4.8%; growth rate ([3]; Panc-1, 20 μM): 5.2%; inhibitory effect on proliferation ([3]; Panc-1, at both concentrations (20 μM and 10 μM)): good inhibitory effect"
CCOC(=O)C(O)C(O)C(Cc1ccc(-c2cc(Cl)cc(Cl)c2)cc1)NC(=O)[C@H](C)N (some centres unmarked) [Compound B12],11.0,–,–,"fold more effective than the control ([2]; SK-MEL-28, 20 μM): about 20 fold; inhibitory effect on proliferation ([2]; SK-MEL-28, 20 μM): excellent inhibitory effect; growth rate ([3]; Panc-1, 20 μM): 24.4%; inhibitory effect on TNF-α induced NFkB luciferase signal ([4]; 20 μM): excellent inhibitory effect"
COCC(=O)N[C@@H](Cc1ccc(-c2cc(Cl)cc(Cl)c2)cc1)[C@H](O)[C@@H](O)C(=O)O [CC0651],–,–,–,inhibition of hCdc34 [5]: inhibits
CCOC(=O)C(O)C(O)C(Cc1ccc(-c2cc(Cl)cc(Cl)c2)cc1)NC(=O)[C@@H]1CCCN1C(=O)OC(C)(C)C (some centres unmarked) [Compound B5],33.5,good inhibitory effect,good results,–
CCOC(=O)C(O)C(O)C(Cc1ccc(-c2cc(Cl)cc(Cl)c2)cc1)NC(=O)CNC(=O)OC(C)(C)C (centres unmarked) [Compound B7],–,good inhibitory effect,–,–
CCOCC(=O)NC(Cc1ccc(-c2cc(Cl)cc(Cl)c2)cc1)C(O)C(O)C(=O)OCC (centres unmarked) [Compound B1],–,–,good results,–
CCOC(=O)C(O)C(O)C(Cc1ccc(-c2cc(Cl)cc(Cl)c2)cc1)NC(=O)CN (centres unmarked) [Compound B11],–,good inhibitory effect,–,–
CCOC(=O)C(O)C(O)C(Cc1ccc(-c2cc(Cl)cc(Cl)c2)cc1)NC(=O)[C@H]1CCCO1 (some centres unmarked) [Compound B4],–,–,good results,–
